# Reference: PubChem BioAssay (NCI)
#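 Interpolation was linear, between the two tested concentrations surrounding the appropriate level; five concentrations were tested over 48 hours in 96-well plates. TGI is the concentration that stops growth completely.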
# Experiments:
# Experiment in all cases: NCI anticancer screen, dose series, 48 h
# SK-MEL-5 melanoma = tested on: SK-MEL-5 melanoma
# HCT-116 colon = tested on: HCT-116 colon
# SF-268 CNS = tested on: SF-268 CNS
# NCI-H23 lung = tested on: NCI-H23 lung
# LOX IMVI melanoma = tested on: LOX IMVI melanoma
# OVCAR-3 ovarian = tested on: OVCAR-3 ovarian
# SR leukemia = tested on: SR leukemia
# M14 melanoma = tested on: M14 melanoma
# SNB-78 CNS = tested on: SNB-78 CNS
# HT29 colon = tested on: HT29 colon
# CCRF-CEM leukemia = tested on: CCRF-CEM leukemia
# HOP-18 NSCLC = tested on: HOP-18 NSCLC
# OVCAR-8 ovarian = tested on: OVCAR-8 ovarian
# ACHN renal = tested on: ACHN renal
# CAKI-1 renal = tested on: CAKI-1 renal
# DLD-1 colon = tested on: DLD-1 colon
# RXF-631 renal = tested on: RXF-631 renal
# KM20L2 colon = tested on: KM20L2 colon
# IGROV1 ovarian = tested on: IGROV1 ovarian
# KM12 colon = tested on: KM12 colon
# OVCAR-5 ovarian = tested on: OVCAR-5 ovarian
# SK-MEL-2 melanoma = tested on: SK-MEL-2 melanoma
# HCT-15 colon = tested on: HCT-15 colon
# HCC-2998 colon = tested on: HCC-2998 colon
# UACC-257 melanoma = tested on: UACC-257 melanoma
# EKVX NSCLC = tested on: EKVX NSCLC
# A549 NSCLC = tested on: A549 NSCLC
# MALME-3M melanoma = tested on: MALME-3M melanoma
# U251 CNS = tested on: U251 CNS
# NCI-H460 lung = tested on: NCI-H460 lung
# 786-0 renal = tested on: 786-0 renal
# HL-60(TB) leukemia = tested on: HL-60(TB) leukemia
# LXFL 529 NSCLC = tested on: LXFL 529 NSCLC
# SNB-75 CNS = tested on: SNB-75 CNS
# SN12C renal = tested on: SN12C renal
# SK-MEL-28 melanoma = tested on: SK-MEL-28 melanoma
# SF-295 CNS = tested on: SF-295 CNS
# K-562 leukemia = tested on: K-562 leukemia
# HOP-62 NSCLC = tested on: HOP-62 NSCLC
# COLO 205 colon = tested on: COLO 205 colon
# OVCAR-4 ovarian = tested on: OVCAR-4 ovarian
# RXF 393 renal = tested on: RXF 393 renal
# M19-MEL melanoma = tested on: M19-MEL melanoma
# RPMI-8226 leukemia = tested on: RPMI-8226 leukemia
# UO-31 renal = tested on: UO-31 renal
# MOLT-4 leukemia = tested on: MOLT-4 leukemia
# UACC-62 melanoma = tested on: UACC-62 melanoma
# SNB-19 CNS = tested on: SNB-19 CNS
# NCI-H522 lung = tested on: NCI-H522 lung
# NCI-H226 lung = tested on: NCI-H226 lung
# SW-620 colon = tested on: SW-620 colon
# XF 498 CNS = tested on: XF 498 CNS
# SK-OV-3 ovarian = tested on: SK-OV-3 ovarian
# DMS 114 small cell lung = tested on: DMS 114 small cell lung
# DMS 273 small cell lung = tested on: DMS 273 small cell lung
# TK-10 renal = tested on: TK-10 renal
# SF-539 CNS = tested on: SF-539 CNS
# A498 renal = tested on: A498 renal
# HOP-92 NSCLC = tested on: HOP-92 NSCLC
structure (smiles),measurement,setting,value
CCOC(=O)/C(C1=N[C@H](C(=O)OCC)CS1)=C(\C)O,TGI,SK-MEL-5 melanoma,> 100 µM
same,TGI,HCT-116 colon,> 100 µM
same,TGI,SF-268 CNS,> 100 µM
same,TGI,NCI-H23 lung,> 100 µM
same,TGI,LOX IMVI melanoma,> 100 µM
same,TGI,OVCAR-3 ovarian,> 100 µM
same,TGI,SR leukemia,> 100 µM
same,TGI,M14 melanoma,> 100 µM
same,TGI,SNB-78 CNS,> 100 µM
same,TGI,HT29 colon,> 100 µM
same,TGI,CCRF-CEM leukemia,> 100 µM
same,TGI,HOP-18 NSCLC,> 100 µM
same,TGI,OVCAR-8 ovarian,> 100 µM
same,TGI,ACHN renal,> 100 µM
same,TGI,CAKI-1 renal,> 100 µM
same,TGI,DLD-1 colon,> 100 µM
same,TGI,RXF-631 renal,> 100 µM
same,TGI,KM20L2 colon,> 100 µM
same,TGI,IGROV1 ovarian,> 100 µM
same,TGI,KM12 colon,> 100 µM
same,TGI,OVCAR-5 ovarian,> 100 µM
same,TGI,SK-MEL-2 melanoma,> 100 µM
same,TGI,HCT-15 colon,> 100 µM
same,TGI,HCC-2998 colon,> 100 µM
same,TGI,UACC-257 melanoma,> 100 µM
same,TGI,EKVX NSCLC,> 100 µM
same,TGI,A549 NSCLC,> 100 µM
same,TGI,MALME-3M melanoma,> 100 µM
same,TGI,U251 CNS,> 100 µM
same,TGI,NCI-H460 lung,> 100 µM
same,TGI,786-0 renal,> 100 µM
same,TGI,HL-60(TB) leukemia,> 100 µM
same,TGI,LXFL 529 NSCLC,> 100 µM
same,TGI,SNB-75 CNS,> 100 µM
same,TGI,SN12C renal,> 100 µM
same,TGI,SK-MEL-28 melanoma,> 100 µM
same,TGI,SF-295 CNS,> 100 µM
same,TGI,K-562 leukemia,> 100 µM
same,TGI,HOP-62 NSCLC,> 100 µM
same,TGI,COLO 205 colon,> 100 µM
same,TGI,OVCAR-4 ovarian,> 100 µM
same,TGI,RXF 393 renal,> 100 µM
same,TGI,M19-MEL melanoma,> 100 µM
same,TGI,RPMI-8226 leukemia,> 100 µM
same,TGI,UO-31 renal,> 100 µM
same,TGI,MOLT-4 leukemia,> 100 µM
same,TGI,UACC-62 melanoma,> 100 µM
same,TGI,SNB-19 CNS,> 100 µM
same,TGI,NCI-H522 lung,> 100 µM
same,TGI,NCI-H226 lung,> 100 µM
same,TGI,SW-620 colon,> 100 µM
same,TGI,XF 498 CNS,> 100 µM
NC(N)=NS(=O)(=O)c1ccc(NC(=O)c2cccc3c(Nc4ccc(S(=O)(=O)N=C(N)N)cc4)c4ccc(Cl)cc4nc23)cc1,TGI,SK-MEL-5 melanoma,> 100 µM
same,TGI,SK-OV-3 ovarian,> 100 µM
same,TGI,DMS 114 small cell lung,> 100 µM
same,TGI,HCT-116 colon,> 100 µM
same,TGI,SF-268 CNS,> 100 µM
same,TGI,NCI-H23 lung,> 100 µM
same,TGI,LOX IMVI melanoma,> 100 µM
same,TGI,DMS 273 small cell lung,> 100 µM
same,TGI,OVCAR-3 ovarian,> 100 µM
same,TGI,TK-10 renal,> 100 µM
same,TGI,M14 melanoma,> 100 µM
same,TGI,SNB-78 CNS,> 100 µM
same,TGI,HT29 colon,> 100 µM
same,TGI,CCRF-CEM leukemia,> 100 µM
same,TGI,HOP-18 NSCLC,> 100 µM
same,TGI,OVCAR-8 ovarian,> 100 µM
same,TGI,ACHN renal,> 100 µM
same,TGI,CAKI-1 renal,> 100 µM
same,TGI,SF-539 CNS,> 100 µM
same,TGI,DLD-1 colon,> 100 µM
same,TGI,KM20L2 colon,> 100 µM
same,TGI,IGROV1 ovarian,> 100 µM
same,TGI,KM12 colon,> 100 µM
same,TGI,OVCAR-5 ovarian,> 100 µM
same,TGI,SK-MEL-2 melanoma,> 100 µM
same,TGI,HCT-15 colon,> 100 µM
same,TGI,HCC-2998 colon,> 100 µM
same,TGI,UACC-257 melanoma,> 100 µM
same,TGI,A498 renal,> 100 µM
same,TGI,EKVX NSCLC,> 100 µM
same,TGI,A549 NSCLC,> 100 µM
same,TGI,MALME-3M melanoma,> 100 µM
same,TGI,U251 CNS,> 100 µM
same,TGI,NCI-H460 lung,> 100 µM
same,TGI,786-0 renal,> 100 µM
same,TGI,LXFL 529 NSCLC,> 100 µM
same,TGI,SNB-75 CNS,> 100 µM
same,TGI,SN12C renal,> 100 µM
same,TGI,SK-MEL-28 melanoma,> 100 µM
same,TGI,SF-295 CNS,> 100 µM
same,TGI,K-562 leukemia,> 100 µM
same,TGI,HOP-62 NSCLC,> 100 µM
same,TGI,HOP-92 NSCLC,93 µM
same,TGI,COLO 205 colon,> 100 µM
same,TGI,OVCAR-4 ovarian,> 100 µM
same,TGI,RXF 393 renal,> 100 µM
same,TGI,RPMI-8226 leukemia,> 100 µM
same,TGI,UO-31 renal,> 100 µM
same,TGI,MOLT-4 leukemia,> 100 µM
same,TGI,UACC-62 melanoma,> 100 µM
same,TGI,SNB-19 CNS,> 100 µM
same,TGI,NCI-H522 lung,> 100 µM
same,TGI,SW-620 colon,> 100 µM
same,TGI,XF 498 CNS,> 100 µM
